The results in this text go back to US3985747A, “Crystalline sesquihydrate of 7-[D-α-amino-α-(p-hydroxyphenyl)acetamido]-3-(1,2,3-triazol- 5-ylthiomethyl)-3-cephem-4-carboxylic acid” (priority 1974, dated 1976).

In brackets after ≈: the same amount, converted by molar mass. Structures can show the parent of a compound that is named as a salt. Where two headings read alike, the source gives them in different places.

One data set has as its system S. aureus Smith A9537. Put plainly: M.I.C. by Tube Dilution. Type of data set: cell-based. The conditions noted are these: Staphylococcus aureus, overnight 37° C.
Another data set deals with K. pneumoniae A15130. Briefly: microbe, parasite or virus in culture. The conditions noted are these: Klebsiella pneumoniae.
In another data set the test system is E. coli Juhl A15119. Put plainly: microbe, parasite or virus in culture. The conditions noted are these: Escherichia coli, JUHLA15119.
Data set [1] relates to S. aureus(methicillin resist) A15097. Put plainly: microbe, parasite or virus in culture. The conditions noted are these: Staphylococcus aureus.
A short description of a further data set: physchem. The data set is classed as physicochemical. The conditions noted are these: for Bioassay: solution pH 7.1, room temperature. The source says: The above components are shaken to form an amber solution having a pH = 7.1. The solution was allowed to stand at room temperature and periodically assayed to determine stability.
A further data set deals with Ent. cloacae A9659. Put plainly: M.I.C. by Tube Dilution. The conditions noted are these: Enterobacter cloacae.
The nature of data set [2]: in vivo. Details: species or system mice. The conditions noted are these: mouse, im, 10 mg/kg. How it is done:
Mouse Blood Levels after IM Administration of 10 mg./kg. Dose of BL-S640

The subject of the next data set is Str. Pyogenes A9604. Briefly: M.I.C. by Tube Dilution. The data set is classed as cell-based. The conditions noted are these: Streptococcus pyogenes; at 10^-3 dil'n, + 5% serum; 50% Nutrient Broth - 45% Antibiotic Assay Broth; overnight 37° C.
Another data set deals with E. coli A9675. Briefly: M.I.C. by Tube Dilution. The conditions noted are these: Escherichia coli. The data set is classed as cell-based.
In another data set the test system is Ps. aeruginosa A9843A. Briefly: microbe, parasite or virus in culture. The conditions noted are these: Pseudomonas aeruginosa.
The subject of the next data set is Sal.enteritidis A9531. Briefly: M.I.C. by Tube Dilution. The conditions noted are these: Salmonella enterica. The data set is classed as cell-based.
Data set [3] can be described thus: Loss of bioactivity of the solid on storage at elevated temperatures. The conditions noted are these: for Loss of bioactivity (potency) on storage: 43800 min. The data set is classed as physicochemical.
The next data set has as its system Ent. cloacae A9657. Put plainly: M.I.C. by Tube Dilution. The conditions noted are these: Enterobacter cloacae.
Another data set concerns bacteria. Briefly: Antibacterial testing in vitro and in vivo. The conditions noted are these: versus that reported in U.S. application Ser. No. 318,340.
The nature of data set [4]: in vivo. The conditions noted are these: mouse, blood, po, 100 mg/kg.
Another data set deals with K. pneumoniae A9977. Briefly: M.I.C. by Tube Dilution. The conditions noted are these: Klebsiella pneumoniae.
The next data set concerns Ser. marcescens A20019. Put plainly: M.I.C. by Tube Dilution. The conditions noted are these: Serratia marcescens.
A further data set concerns S. aureus BX1633-2 A9606. Briefly: M.I.C. by Tube Dilution. The data set is classed as cell-based. The conditions noted are these: Staphylococcus aureus, overnight 37° C.
The next data set can be described thus: Water solubility. The data set is classed as physicochemical.
The next data set concerns Ent. cloacae A9656. Put plainly: M.I.C. by Tube Dilution. The conditions noted are these: Enterobacter cloacae.
A further data set has as its system Pr. morganii A15153. Briefly: M.I.C. by Tube Dilution. The conditions noted are these: Morganella morganii.
Another data set concerns D. pneumoniae A9585. Briefly: M.I.C. by Tube Dilution. Type of data set: cell-based. The conditions noted are these: Streptococcus pneumoniae, at 10^-3 dil'n, + 5% serum, 50% Nutrient Broth - 45% Antibiotic Assay Broth, overnight 37° C.
For data set [5] the following is noted: in vivo, po.
For a further data set, the system named is Pr. mirabilis A9900. Put plainly: M.I.C. by Tube Dilution. The conditions noted are these: Proteus mirabilis.
The conditions of data set [6]: pH 7.
Data set [7] in a line: Loss of bound water on drying. Type of data set: physicochemical. The conditions noted are these: very mild conditions (air drying 37° - 45° C., 24 hours). How it is done:
Upon recovery of the crystalline hydrate from the reaction mixture and cooling to room temperature, the hydrate is ordinarily isolated in the form of the crystalline dihydrate. […] […] […] Upon vacuum drying at 56° C. for 24 hours a crystalline hemihydrate is formed having 0.5 moles of bound water per mole of cephalosporin. All of the above-mentioned novel crystalline hydrates are included within the scope of the present invention.

Setting [8] is: SMITHA9537, at 10^-4 dilution, + 50% serum.
[9] abbreviates: at 10^-4 dilution, overnight 37° C., read-out: M.I.C.

The solubility is the dissolved amount per volume that the medium holds.

Regarding `N[C@@H](C(=O)N[C@@H]1C(=O)N2C(C(=O)O)=C(CSc3c[nH]nn3)CS[C@H]12)c1ccc(O)cc1` [BL-S640 Sesquihydrate, 7-[D-α-amino-α-(p-hydroxyphenyl)acetamido]-3-(1,2,3-triazol-5-ylthiomethyl)-3-cephem-4-carboxylic acid sesquihydrate], the “Biological activity when suspended in water” value was “does not lose biological activity”. Besides, the MIC with S. aureus Smith A9537 (setting [8]) worked out at 1 µg/mL. For the same compound, the MIC with S. aureus Smith A9537 (SMITHA9537, at 10^-4 dilution, read-out: M.I.C.) was 0.3 µg/mL. Further, in the data set on K. pneumoniae A15130, the MIC is 2 µg/mL. The compound further displayed an MIC against E. coli Juhl A15119 of 2 µg/mL. This compound yielded an MIC in data set [1] of 8 µg/mL. Also, in the data set “physchem” (aqueous solution, pH 7.1), the degraded at 0.5 h came out at 0.8%, the degraded at 1 h is 5.8%, the degraded at 1.5 h came to 8.3% and the degraded at 2 h was determined as 15.9%. Further, the degraded at […] in “physchem” (aqueous solution, pH 7.1) is 0.8%. For the same compound, the Bioassay in the data set “physchem” (15 minutes) was found to be 238 mg/mL. The compound also gave a Bioassay in “physchem” (30 minutes) of 238 mg/mL. The compound also registered a Bioassay in the data set “physchem” (60 minutes) of 226 mg/mL. In addition, the Bioassay in “physchem” (90 minutes) turned out to be 220 mg/mL. The Bioassay in the data set “physchem” (2 hours) was 202 mg/mL. In the data set “physchem” (time 0), this compound displayed a Bioassay of 240 mg/mL. Also, the MIC in the data set with Ent. cloacae A9659 amounted to 32 µg/mL. In the data set “in vivo [2]”, this compound registered a concentration at 5 min of 15000 ng/mL, a concentration at 0.5 h of 13500 ng/mL, a concentration at 1 h of 9400 ng/mL and a concentration at 1.5 h of 6800 ng/mL. Further, the MIC in the data set with Str. Pyogenes A9604 was determined as 0.02 µg/mL. Moreover, the MIC with E. coli A9675 (setting [9]) came out at 4 µg/mL. For the same compound, in the data set with Ps. aeruginosa A9843A, the MIC is more than 125 µg/mL. Also, in the data set with Sal.enteritidis A9531 (setting [9]), the MIC was found to be 0.6 µg/mL. Further, the Bio-assay in “Bio-assay (biopotency)” worked out at 924 µg/mg. In addition, the degraded at 730 h in [3] (solid, 56° C., 1 month, read-out: Loss of bioactivity (potency) on storage) was less than 6%. The compound further registered an MIC with Ent. cloacae A9657 of 1 µg/mL. Besides, the “Potency and spectrum of activity” value with bacteria is “substantially the same potency and spectrum of activity”. Besides, in “in vivo [4]”, the concentration at 0.5 h was determined as 46000 ng/mL, the concentration at 1 h turned out to be 42500 ng/mL, the concentration at 2 h stood at 22500 ng/mL and the concentration at 3.5 h was determined as 11900 ng/mL. The same compound registered an MIC with K. pneumoniae A9977 of 1 µg/mL. Also, the MIC in the data set on Ser. marcescens A20019 was determined as 125 µg/mL. In the data set with S. aureus BX1633-2 A9606 (BX16332A9606, at 10^-2 dil'n), the MIC amounted to 2 µg/mL. In the data set with S. aureus BX1633-2 A9606 (BX16332A9606, at 10^-3 dil'n, read-out: M.I.C.), the MIC came to 0.6 µg/mL. Besides, the solubility in the data set “Water solubility” (25° C., read-out: Solubility in water) is approximately 10000 µg/mL. In the data set with Ent. cloacae A9656, this compound returned an MIC of more than 125 µg/mL. The same compound displayed an MIC with Pr. morganii A15153 of 16 µg/mL. For the same compound, the MIC in the data set on D. pneumoniae A9585 is 0.02 µg/mL. Further, in [5], the Blood levels entry is “effective blood levels”. The compound also showed an MIC in the data set on Pr. mirabilis A9900 of 0.5 µg/mL.
Take `N[C@@H](C(=O)NC1C(=O)N2C(C(=O)O)=C(CSc3cnn[nH]3)CS[C@H]12)c1ccc(O)cc1` (stereo partly drawn) [BL-S640, 7-[D-α-Amino-α-(p-hydroxyphenyl)acetamido]-3-(1,2,3-triazol-5-ylthiomethyl)-3-cephem-4-carboxylic acid]: the “Degradation at alkaline pH” value in data set [6] was “degrades very rapidly by loss of the thiol moiety”.
In “in vivo [2]”, `Cc1nnc(SCC2=C(C(=O)O)N3C(=O)[C@@H](NC(=O)Cn4cnnn4)[C@H]3SC2)s1` [Cefazolin, Na salt, sodium cefazolin, reference compound] had a concentration at 5 min of 16100 ng/mL, a concentration at 0.5 h of 11100 ng/mL, a concentration at 1 h of 5700 ng/mL and a concentration at 1.5 h of 2900 ng/mL.
For `CC1=C(C(=O)O)N2C(=O)[C@@H](NC(=O)[C@H](N)c3ccccc3)[C@H]2SC1` [Cephalexin, cephalexin, reference compound], the MIC with S. aureus Smith A9537 (setting [8]) was 2.5 µg/mL; against S. aureus Smith A9537 (SMITHA9537, at 10^-4 dilution), 0.6 µg/mL (≈ 1.73 µM); against K. pneumoniae A15130, 8 µg/mL (≈ 23 µM); in the data set on E. coli Juhl A15119 it was 4 µg/mL (≈ 11.5 µM); in data set [1] it was 32 µg/mL (≈ 92.1 µM); against Ent. cloacae A9659, more than 125 µg/mL. Besides, the MIC in the data set with E. coli A9675 is 16 µg/mL (≈ 46.1 µM); in the data set on Ps. aeruginosa A9843A, more than 125 µg/mL; with Sal.enteritidis A9531, 2 µg/mL (≈ 5.76 µM); in the data set with K. pneumoniae A9977 it was 2 µg/mL (≈ 5.76 µM); in the data set on Ser. marcescens A20019, more than 125 µg/mL; against S. aureus BX1633-2 A9606 (BX16332A9606, at 10^-2 dil'n) it was 2 µg/mL (≈ 5.76 µM). In addition, the MIC was 1 µg/mL (≈ 2.88 µM) against S. aureus BX1633-2 A9606 (BX16332A9606, at 10^-3 dil'n); more than 125 µg/mL in the data set with Ent. cloacae A9656; more than 125 µg/mL against Pr. morganii A15153; 2 µg/mL (≈ 5.76 µM) against Pr. mirabilis A9900.
In turn, `N[C@@H](C(=O)NC1C(=O)N2C(C(=O)O)=C(CSc3cnn[nH]3)CSC12)c1ccc(O)cc1` (stereo partly drawn) [Crystalline Methanol Solvate, 7-[D-α-amino-α-(p-hydroxyphenyl)acetamido]-3-(1,2,3-triazol-5-ylthiomethyl)-3-cephem-4-carboxylic acid methanol solvate] had a Bio-assay in “Bio-assay (biopotency)” of 850 to 900 µg/mg.
Turning to `N[C@@H](C(=O)NC1C(=O)N2C(C(=O)O)=C(CSc3cnn[nH]3)CSC12)c1ccc(O)cc1` (some centres unmarked) [amorphous monohydrate product], in [3] (56° C., 1 month), the “Loss of bioactivity (potency) on storage” value worked out at 37%.
For the compound `N[C@@H](C(=O)NC1C(=O)N2C(C(=O)O)=C(CSc3cnn[nH]3)CS[C@H]12)c1ccc(O)cc1.O.O` (stereo partly drawn) [dihydrate, 7-[D-α-Amino-α-(p-hydroxyphenyl)-acetamido]-3-(1,2,3-triazol-5-ylthiomethyl)-3-cephem-4-carboxylic acid dihydrate], the “Loss of bound water” value in [7] was “lose one-half molecule of bound water”. The Bio-assay in the data set “Bio-assay (biopotency)” was 950 to 1000 µg/mg.
In the data set “Bio-assay (biopotency)”, `N[C@@H](C(=O)NC1C(=O)N2C(C(=O)O)=C(CSc3cnn[nH]3)CSC12)c1ccc(O)cc1` (stereo partly drawn) [propylene glycol solvate, 7-[D-α-amino-α-(p-hydroxyphenyl)acetamido]-3-(1,2,3-triazol-5-ylthiomethyl)-3-cephem-4-carboxylic acid propylene glycol solvate] came in with a Bio-assay of 750 to 790 µg/mg. Moreover, in data set [3] (56° C., 1 month), the “Loss of bioactivity (potency) on storage” value was less than 10%. Besides, the degraded at 24 h in data set [3] (solid, 100° C., 24 hours) was less than 6%. Also, the degraded at 48 h in data set [3] (solid, 100° C., 48 hours) was less than 12%. Moreover, the solubility in “Water solubility” (23° C., read-out: Water solubility) was approximately 10000 µg/mL.
